{
  "source": "patent US10471030B2",
  "about": "“Immunomodulatory and differentiating function selective retinoid and rexinoid compounds in combination with immune modulators for cancer immunotherapy” (Io Therapeutics, Inc., priority 2017, dated 2019)",
  "key": {"[1]": {"system": "MM H929 cell lines and MM CD138+ primary cells", "assay": "mRNA expression of B cell and PC markers in MM cells, liquid or BM stroma co-culture (qRT-PCR)", "format": "cell-based, human", "conditions": "1 μM for 5 days", "method": "24-well plates were coated with 0.1% gelatin in PBS for 30 min at 37° C. The gelatin solution was removed, and the stromal cells were cultured overnight at a density of 5×10^4 cells/well to obtain a confluent monolayer. At that time, MM cell lines or primary MM cells (1×10^5 in 2 ml) were added to the stroma cultures. The stroma cocultures were incubated at 37° C. in RPMI containing 10% FCS, L-glutamine, and P/S, with or without AGN194310 (1 μM for 5 days), R115866 (1 μM for 5 days), IRX5183 (1 μM for 5 days), or BTZ (2.5 nM for 48 hr).\nTotal RNA was extracted using the RNeasy Mini Kit (QIAGEN) according to the manufacturer's instructions. cDNA was synthesized by reverse transcription using the iScript cDNA Synthesis Kit (Bio-Rad). qRT-PCR was performed with iTaq SYBR Green Supermix (Bio-Rad) using sequence specific primers. Gene expression was normalized to GAPDH, and relative quantification was calculated using ΔΔCt. All experiments were performed in duplicate and run on the Bio-Rad CFX96 machine.\nThe BM microenvironment (also called “niche”) limits PC differentiation by modulating retinoid signaling. A population of MM progenitors, phenotypically similar to B cells, is intrinsically resistant to BTZ and contributes to MRD and relapse. To investigate whether the BM niche plays a role in determining the phenotype of MM cells, the mRNA expression of B cell and PC markers in MM H929 cell lines (FIGS. 3A-D) and MM CD138+ primary cells (FIGS. 3E-H) was analyzed following co-culture with mouse BM stroma using human-specific primers. […] In contrast, co-culture of MM cells with BM stroma decreased the mRNA expression of B lymphocyte-induced maturation protein 1 (BLIMP1) and spliced X box-binding protein 1 (XBP1s) (FIG. 3B, C, F, G), which are critical mediators of PC differentiation.\nThe BM niche regulates hematopoietic stem cell (HSC) differentiation by expressing the retinoid-inactivating enzyme CYP26. CYP26 enzymes were highly expressed in BM mesenchymal cells, while their expression was barely detectable in MM cells. Since retinoid signaling promotes PC differentiation and potentiates Ig secretion, it was determined whether stromal CYP26 is responsible for inducing a B cell phenotype in MM cells. To this end, co-culture conditions were treated with the CYP26 inhibitor R115866 (R115) or the CYP26-resistant RA receptor α-selective (RARα-selective) retinoid IRX5183 (IRX)."}, "[2]": {"system": "NB4 cells", "assay": "CFU experiments off and on stroma, NB4 cells", "format": "cell-based", "conditions": "10^−7 M ATRA, IRX5183, or 10^−8 M AM80", "excerpt": "Data across three independent experiments."}},
  "data": [
    {"molecule": "CC1(C)CCC(C)(C)c2c1cc(C(=O)Nc1cc(F)c(C(=O)O)c(F)c1)c(O)c2Cl", "note": "[IRX5183]", "values": [
      {"measurement": "mRNA expression of BCL6, BLIMP1, XBP1s, CHOP markers", "setting": "[1]; BM stroma co-cultures", "result": "restored all markers to levels comparable to those of liquid control conditions"},
      {"measurement": "expression of differentiation markers", "setting": "[1]; liquid conditions (absence of stroma)", "result": "induced comparable changes, irrespective of the presence or absence of BM stroma"},
      {"measurement": "clonogenic growth (CFU)", "setting": "[2]", "result": "decrease in clonogenic growth compared to control"}
    ]}
  ]
}
